Results as given in US11034650B2, “Compounds useful for treating a Mannheimia haemolytica or Histophilus somni infection” (Intervet Inc., priority 2016, dated 2021).
Values after ≈ are worked out from the molar mass of the structure shown.

Legend:
Type in all cases: cell-based
[1] = system: Mannheimia haemolytica MH 6357 (M7/2, reference strain, cattle infection strain); assay: MIC, broth-microdilution (CLSI VET01-A4), strain MH 6357; settings: Mannheimia haemolytica strain MH 6357, broth-microdilution; unit assumed
How it was run: (§1)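 The compound was titrated in twofold steps in microdilution trays. Absence of turbidity, checked without instruments, marked the MIC at the lowest such concentration.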

[2] = system: Mannheimia haemolytica MH 6374 (ATCC 33396, reference strain); assay: MIC, broth-microdilution (CLSI VET01-A4), strain MH 6374; settings: Mannheimia haemolytica strain MH 6374, broth-microdilution; unit assumed
How it was run: as §1

[3] = system: Mannheimia haemolytica MH 10720 (154, BRD field isolate); assay: MIC, broth-microdilution (CLSI VET01-A4), strain MH 10720; settings: Mannheimia haemolytica strain MH 10720, broth-microdilution; unit assumed
How it was run: as §1

[4] = system: Mannheimia haemolytica MH 12587 (1071, BRD field isolate, macrolide-resistance: erm+, E+); assay: MIC, broth-microdilution (CLSI VET01-A4), strain MH 12587; settings: Mannheimia haemolytica strain MH 12587, broth-microdilution; unit assumed
How it was run: as §1

[5] = system: Mannheimia haemolytica MH 13065 (XB0446-6003.9, BRD field isolate); assay: MIC, broth-microdilution (CLSI VET01-A4), strain MH 13065; settings: Mannheimia haemolytica strain MH 13065, broth-microdilution; unit assumed
How it was run: as §1

[6] = system: Mannheimia haemolytica MH 13093 (XB0472-6014.1, BRD field isolate); assay: MIC, broth-microdilution (CLSI VET01-A4), strain MH 13093; settings: Mannheimia haemolytica strain MH 13093, broth-microdilution; unit assumed
How it was run: as §1

[7] = system: Pasteurella multocida PM 6267 (P 2225 (L386), reference strain, mouse infection strain); assay: MIC, broth-microdilution (CLSI VET01-A4), strain PM 6267; settings: Pasteurella multocida strain PM 6267, broth-microdilution; unit assumed
How it was run: as §1

[8] = system: Pasteurella multocida PM 6391 (ATCC 43137, reference strain); assay: MIC, broth-microdilution (CLSI VET01-A4), strain PM 6391; settings: Pasteurella multocida strain PM 6391, broth-microdilution; unit assumed
How it was run: as §1

[9] = system: Pasteurella multocida PM 10775 (080130003051, BRD field isolate); assay: MIC, broth-microdilution (CLSI VET01-A4), strain PM 10775; settings: Pasteurella multocida strain PM 10775, broth-microdilution; unit assumed
How it was run: as §1

[10] = system: Pasteurella multocida PM 12080 (IV102277-0093, BRD field isolate); assay: MIC, broth-microdilution (CLSI VET01-A4), strain PM 12080; settings: Pasteurella multocida strain PM 12080, broth-microdilution; unit assumed
How it was run: as §1

Structure (SMILES) | MIC PM 6267 [7] [µg/mL] | MIC PM 6391 [8] [µg/mL] | MIC PM 10775 [9] [µg/mL] | MIC PM 12080 [10] [µg/mL] | MIC MH 6357 [1] [µg/mL] | MIC MH 6374 [2] [µg/mL] | MIC MH 10720 [3] [µg/mL] | MIC MH 12587 [4] [µg/mL] | MIC MH 13065 [5] [µg/mL] | MIC MH 13093 [6] [µg/mL]
CON=C(C)[C@H](NC(=O)c1ccc(C#Cc2ccc(CNCc3ccccn3)cc2)cc1)C(=O)NO [Compound 390] | 3.1 (≈ 6.38 µM) | ≤ 0.1 | 0.4 (≈ 0.824 µM) | 0.2 (≈ 0.412 µM) | 0.4 (≈ 0.824 µM) | 1.6 (≈ 3.3 µM) | 0.8 (≈ 1.65 µM) | 0.2 (≈ 0.412 µM) | 0.8 (≈ 1.65 µM) | 0.8 (≈ 1.65 µM)
CON=C(C)[C@H](NC(=O)c1ccc(C#Cc2ccc(CNCc3ccco3)cc2)cc1)C(=O)NO [Compound 391] | 1.6 (≈ 3.37 µM) | ≤ 0.1 | 0.4 (≈ 0.843 µM) | ≤ 0.1 | 0.4 (≈ 0.843 µM) | 0.4 (≈ 0.843 µM) | 0.4 (≈ 0.843 µM) | ≤ 0.1 | 0.4 (≈ 0.843 µM) | 0.4 (≈ 0.843 µM)
CON=C(C)[C@H](NC(=O)c1ccc(C#Cc2ccc(CNCC3CCCO3)cc2)cc1)C(=O)NO (some centres unmarked) [Compound 394] | 6.3 (≈ 13.2 µM) | 0.2 (≈ 0.418 µM) | 0.8 (≈ 1.67 µM) | 0.4 (≈ 0.836 µM) | 3.1 (≈ 6.48 µM) | 6.3 (≈ 13.2 µM) | 1.6 (≈ 3.34 µM) | 0.8 (≈ 1.67 µM) | 3.1 (≈ 6.48 µM) | 3.1 (≈ 6.48 µM)
CON=C(C)[C@H](NC(=O)c1ccc(C#Cc2ccc(CNCc3nccs3)cc2)cc1)C(=O)NO [Compound 395] | 3.1 (≈ 6.31 µM) | ≤ 0.1 | 0.2 (≈ 0.407 µM) | 0.2 (≈ 0.407 µM) | 0.4 (≈ 0.814 µM) | 0.8 (≈ 1.63 µM) | 0.4 (≈ 0.814 µM) | 0.2 (≈ 0.407 µM) | 0.8 (≈ 1.63 µM) | 0.8 (≈ 1.63 µM)
CC(=O)[C@H](NC(=O)c1ccc(C#Cc2ccc(CNC3CC3)cc2)cc1)C(=O)NO [Compound 396] | 12.5 (≈ 30.8 µM) | ≤ 0.1 | 0.8 (≈ 1.97 µM) | 0.4 (≈ 0.987 µM) | 1.6 (≈ 3.95 µM) | 1.6 (≈ 3.95 µM) | 1.6 (≈ 3.95 µM) | 0.4 (≈ 0.987 µM) | 3.1 (≈ 7.65 µM) | 3.1 (≈ 7.65 µM)
CC(=O)[C@H](NC(=O)c1ccc(C#Cc2ccc(CN3CCOCC3)cc2)cc1)C(=O)NO [Compound 399] | 25 (≈ 57.4 µM) | ≤ 0.1 | 0.8 (≈ 1.84 µM) | 0.4 (≈ 0.919 µM) | 3.1 (≈ 7.12 µM) | 6.3 (≈ 14.5 µM) | 1.6 (≈ 3.67 µM) | 1.6 (≈ 3.67 µM) | 6.3 (≈ 14.5 µM) | 6.3 (≈ 14.5 µM)

More lines, main results first:

MIC PM 6267 [7] [µg/mL] | MIC PM 6391 [8] [µg/mL] | MIC PM 10775 [9] [µg/mL] | MIC PM 12080 [10] [µg/mL] | Structure (SMILES) | MIC MH 6357 [1] [µg/mL] | MIC MH 6374 [2] [µg/mL] | MIC MH 10720 [3] [µg/mL] | MIC MH 12587 [4] [µg/mL] | MIC MH 13065 [5] [µg/mL] | MIC MH 13093 [6] [µg/mL]
1.6 (≈ 3.26 µM) | ≤ 0.1 | 0.4 (≈ 0.815 µM) | ≤ 0.1 | CON=C(C)[C@H](NC(=O)c1ccc(C#Cc2ccc(CNCc3cccs3)cc2)cc1)C(=O)NO [Compound 392] | 0.4 (≈ 0.815 µM) | 0.4 (≈ 0.815 µM) | 0.4 (≈ 0.815 µM) | ≤ 0.1 | 0.4 (≈ 0.815 µM) | 0.4 (≈ 0.815 µM)
6.3 (≈ 12.6 µM) | 0.2 (≈ 0.401 µM) | 0.8 (≈ 1.6 µM) | 0.4 (≈ 0.802 µM) | CON=C(C)[C@H](NC(=O)c1ccc(C#Cc2ccc(CNCc3ccc(C)cc3)cc2)cc1)C(=O)NO [Compound 393] | 0.8 (≈ 1.6 µM) | 1.6 (≈ 3.21 µM) | 0.8 (≈ 1.6 µM) | 0.4 (≈ 0.802 µM) | 6.3 (≈ 12.6 µM) | 6.3 (≈ 12.6 µM)
25 (≈ 59 µM) | 0.2 (≈ 0.472 µM) | 3.1 (≈ 7.32 µM) | 1.6 (≈ 3.78 µM) | COCCNCc1ccc(C#Cc2ccc(C(=O)N[C@@H](C(C)=O)C(=O)NO)cc2)cc1 [Compound 398] | 6.3 (≈ 14.9 µM) | 6.3 (≈ 14.9 µM) | 6.3 (≈ 14.9 µM) | 1.6 (≈ 3.78 µM) | 12.5 (≈ 29.5 µM) | 25 (≈ 59 µM)
3.1 (≈ 6.81 µM) | ≤ 0.1 | 0.8 (≈ 1.76 µM) | 0.4 (≈ 0.878 µM) | CC(=O)C(NC(=O)c1ccc(C#Cc2ccc(CNCc3ccccc3)cc2)cc1)C(=O)NO (centres unmarked) [Compound 400] | 0.8 (≈ 1.76 µM) | 1.6 (≈ 3.51 µM) | 1.6 (≈ 3.51 µM) | 0.2 (≈ 0.439 µM) | 1.6 (≈ 3.51 µM) | 1.6 (≈ 3.51 µM)
6.3 (≈ 13 µM) | 0.2 (≈ 0.412 µM) | 1.6 (≈ 3.3 µM) | 0.8 (≈ 1.65 µM) | COc1ccc(CNCc2ccc(C#Cc3ccc(C(=O)N[C@@H](C(C)=O)C(=O)NO)cc3)cc2)cc1 [Compound 401] | 1.6 (≈ 3.3 µM) | 1.6 (≈ 3.3 µM) | 3.1 (≈ 6.38 µM) | 0.4 (≈ 0.824 µM) | 1.6 (≈ 3.3 µM) | 1.6 (≈ 3.3 µM)
